PMC12481576, “Barbituric Acid Derivatives as Covalent Inhibitors of Leishmania braziliensis Dihydroorotate Dehydrogenase” (Journal of Medicinal Chemistry, 2025)
Values joined by “and” are separate entries in the source; they are usually repeats but may differ in a detail not shown here. Identical values can stand only once. Like-named read-outs stand apart in the source and are kept apart here.

Legend:
LbDHODH = LbDHODH (Leishmania braziliensis, UniProt E9AI53); experiment: biochemical; details: for IC50: LbDHODH
Chain of LbDHODH (E9AI53 entry or part of it): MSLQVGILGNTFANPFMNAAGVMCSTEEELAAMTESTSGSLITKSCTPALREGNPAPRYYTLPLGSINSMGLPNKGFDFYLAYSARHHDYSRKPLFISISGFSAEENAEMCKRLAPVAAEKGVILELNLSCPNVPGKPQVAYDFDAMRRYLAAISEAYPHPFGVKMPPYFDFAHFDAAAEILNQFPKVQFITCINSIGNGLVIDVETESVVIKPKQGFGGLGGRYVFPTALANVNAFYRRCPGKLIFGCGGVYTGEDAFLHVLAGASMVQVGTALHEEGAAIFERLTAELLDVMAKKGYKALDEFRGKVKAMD
Procedure, shortened: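 Covalent inactivation constant kinact/KI came from linear fitting of early kobs values against inhibitor concentration. Activity followed by A610 (DCIP, DHO substrate) every 3 s over 60 s in Tris pH 8.15/KCl/Triton X-100 buffer, in triplicate; single-point 100 μM screen run at 0 h and after 4-h preincubation.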

HsDHODH = target: T1, HsDHODH (Homo sapiens, UniProt Q02127); experiment: Selectivity assay: HsDHODH single-dose inhibition (DCIP reduction); format: biochemical
T1 construct: made in house
T1 sequence (Q02127 whole entry): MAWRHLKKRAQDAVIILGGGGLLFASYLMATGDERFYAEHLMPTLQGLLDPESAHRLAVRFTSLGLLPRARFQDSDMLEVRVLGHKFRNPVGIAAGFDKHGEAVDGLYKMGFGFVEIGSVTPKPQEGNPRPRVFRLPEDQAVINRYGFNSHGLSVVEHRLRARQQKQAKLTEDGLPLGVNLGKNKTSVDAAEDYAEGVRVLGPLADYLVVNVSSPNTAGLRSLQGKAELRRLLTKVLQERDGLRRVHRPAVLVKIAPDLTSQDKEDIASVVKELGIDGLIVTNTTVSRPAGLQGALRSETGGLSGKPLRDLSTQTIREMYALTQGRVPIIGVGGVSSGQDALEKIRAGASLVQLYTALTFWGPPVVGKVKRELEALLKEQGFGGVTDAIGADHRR
Procedure, shortened: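 Single-dose format, run in triplicate: His-purified HsDHODH (20 nM final) started by adding reaction buffer, absorbance at 610 nm (DCIP) recorded for 60 s at 3-s intervals. Initial rates converted to percent of no-compound control activity.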

[1] = Cell viability / cytotoxicity assay (PrestoBlue, 72 h); format: cell-based; details: human; THP-1 cell line, 72 h, max 200 μM; read-out: CC50
Procedure, shortened: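 Viability was measured with PrestoBlue fluorescence (560/590 nm, 2 h) after 72 h compound exposure at 37 °C. Test concentrations descended from 200 μM. The THP-1 monocytes had first been differentiated with 150 ng/mL phorbol myristate acetate for 48 h, then rested 24 h.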

in vitro [2] = experiment: in vitro
Procedure: Solutions of the compounds were prepared in duplicate by diluting the stock solutions (10 mM) in phosphate buffered saline (PBS) pH 7.4 at a final concentration of 10 μM (5% DMSO). The solutions diluted in PBS pH 7.4 were then added to the donor portion of the plate (300 μL/well), while in the acceptor portion PBS pH 7.4 (200 μL/well) was added. The two portions of the plate were then coupled, and the system was incubated for 6 h at room temperature. Samples of the initial donor solution (T0) were collected at the beginning (T0) and stored at 5 °C. The final concentrations of compounds in the donor, acceptor and T0 wells were quantified by LC-MS/MS.

[3] = for Remarks (mouse microsomal stability study): NCF = no cofactor control
in vitro [4] = details: microsomes; for microsomal CLint at 1 μM / remaining at 5 min, 1 μM: male, CD1, mouse; for remaining at 5 min, 1 μM / remaining at 10 min, 1 µM / remaining at 20 min, 1 µM / remaining at 0.5 h, 1 µM / remaining at 1 h, 1 µM: pH 7.4, % Remaining; for remaining at 5 min, 1 μM: T=5 min; for remaining at 10 min, 1 µM / remaining at 20 min, 1 µM / remaining at 0.5 h, 1 µM / remaining at 1 h, 1 µM: mouse; for remaining at 10 min, 1 µM: T=10 min; for remaining at 20 min, 1 µM: T=20 min; for remaining at 0.5 h, 1 µM: T=30 min, 30 min; for remaining at 1 h, 1 µM: T=60 min, 60 min
[5] = Mouse liver microsome stability in the absence of cofactors (NCF); details: mouse, microsomes, pH 7.4, % Remaining, T=60 NCF, 1 µM, 60 min, no cofactor (NCF)
[6] = 0 h, pH 8.15, read-out: LbDHODH Activity±SD (%)
[7] = 4 h, pH 8.15, read-out: LbDHODH Activity±SD (%)
[8] = IC50 0 h, without preincubation
[9] = read-out: Single dose (0h) % activity
[10] = read-out: Single dose (4h) % activity
[11] = average of n=2, 10µM, PBS pH 7.4/7.4, 6h at room temperature
[12] = mouse liver microsomes, 0.4 mg/ml, 1 µM
[13] = n=1, mouse liver microsomes, 1 µM, n=1
[14] = n=2, mouse liver microsomes, 1 µM, n=2

COc1cc(C=C2C(=O)NC(=O)NC2=O)ccc1O [2c, 5-(4-Hydroxy-3-methoxybenzylidene)pyrimidine-2,4,6(1H,3H,5H)-trione]
activity at 0.390625 µM (LbDHODH; [6]): 96 ± 9%
activity at 0.78125 µM (LbDHODH; [6]): 92 ± 9%
activity at 1.5625 µM (LbDHODH; [6]): 82 ± 23%
activity at 3.125 µM (LbDHODH; [6]): 77 ± 7%
activity at 6.25 µM (LbDHODH; [6]): 46 ± 4%
activity at 12.5 µM (LbDHODH; [6]): 36 ± 8%
activity at 25 µM (LbDHODH; [6]): 22 ± 2%
activity at 50 µM (LbDHODH; [6]): 13 ± 1%
activity at 100 µM (LbDHODH; [6]): 7 ± 4%
activity at 200 µM (LbDHODH; [6]): 5 ± 0.4%
activity at 400 µM (LbDHODH; [6]): 6 ± 1%
activity at 0.390625 µM (LbDHODH; [7]): 102 ± 10%
activity at 0.78125 µM (LbDHODH; [7]): 97 ± 9%
activity at 1.5625 µM (LbDHODH; [7]): 96 ± 12%
activity at 3.125 µM (LbDHODH; [7]): 90 ± 6%
activity at 6.25 µM (LbDHODH; [7]): 86 ± 7%
activity at 12.5 µM (LbDHODH; [7]): 83 ± 8%
activity at 25 µM (LbDHODH; [7]): 72 ± 5%
activity at 50 µM (LbDHODH; [7]): 62 ± 8%
activity at 100 µM (LbDHODH; [7]): 52 ± 6%
activity at 200 µM (LbDHODH; [7]): 32 ± 2%
activity at 400 µM (LbDHODH; [7]): 23 ± 3%
IC50 (LbDHODH; [8]): 7 ± 1 µM
IC50 (LbDHODH; IC50 4 h, 4-h preincubation): 89 ± 4 µM
activity at 100 µM (LbDHODH; [9]): 7 ± 3%
activity at 100 µM (LbDHODH; [10]): 21 ± 5%
activity at 100 µM (HsDHODH; [9]): 80 ± 9%
activity at 100 µM (HsDHODH; [10]): 83 ± 8%
CC50 at 72 h [1]: > 200 µM
recovery at 6 h, 10 µM (in vitro [2]; PAMPA, pH 7.4, % Recovery n=1, replicate n=1, 10µM, PBS pH 7.4/7.4, 6h at room temperature): 86.6%
recovery at 6 h, 10 µM (in vitro [2]; PAMPA, pH 7.4, % Recovery n=2, replicate n=2, 10µM, PBS pH 7.4/7.4, 6h at room temperature): 96%
recovery at 6 h, 10 µM (in vitro [2]; PAMPA, pH 7.4, Avg % Recovery, average of n=2, 10µM, PBS pH 7.4/7.4, 6h at room temperature): 91.3%
Papp (in vitro [2]; PAMPA, pH 7.4, permeability, PBS pH 7.4, 10 μM, 6 h): 0.84 ×10⁻⁶ cm/s
Avg Log Pe (cm/sec) (in vitro [2]; [11]): -6.08 cm/sec and -6.1 cm/sec
Avg Pe (in vitro [2]; [11]): 0.843 ×10⁻⁶ cm/s and 0.84 ×10⁻⁶ cm/s
LogPe (cm/sec) n1 (in vitro [2]; replicate n1, calculation section, 10µM, PBS pH 7.4/7.4, 6h): -6.16 cm/sec
LogPe (cm/sec) n2 (in vitro [2]; replicate n2, calculation section, 10µM, PBS pH 7.4/7.4, 6h): -6.00 cm/sec
Pe (nm/sec) n=1 (in vitro [2]; replicate n=1, 10µM (5% DMSO), PBS pH 7.4/7.4, 6h at room temperature, LC-MS/MS): 6.94 nm/s and 6.9 nm/s
% Recovery n=1 (in vitro [2]; replicate n=1, 10µM, PBS pH 7.4/7.4, 6h at room temperature): 86.6%
Pe (nm/sec) n=2 (in vitro [2]; replicate n=2, 10µM (5% DMSO), PBS pH 7.4/7.4, 6h at room temperature, LC-MS/MS): 9.91 nm/s and 9.9 nm/s
% Recovery n=2 (in vitro [2]; replicate n=2, 10µM, PBS pH 7.4/7.4, 6h at room temperature): 96.0%
Calculated T-half (min), Average ([3]; mouse liver microsomes (CD1 male), 0.4 mg/ml protein, test conc 1 µM, average of n=1 and n=2): 6.0 min
Calculated T-half (min), n=1 ([3]; mouse liver microsomes (CD1 male), 0.4 mg/ml protein, test conc 1 µM, replicate n=1): 6.12 min and 6.1 min
Calculated T-half (min), n=2 ([3]; mouse liver microsomes (CD1 male), 0.4 mg/ml protein, test conc 1 µM, replicate n=2): 5.82 min and 5.8 min
Calculated CLint, app (µl/min/mg), n=1 ([3]; mouse liver microsomes, 0.4 mg/ml protein, 1 µM, replicate n=1): 283.1 µL/min/mg
Calculated CLint, app (µl/min/mg), n=2 ([3]; mouse liver microsomes, 0.4 mg/ml protein, 1 µM, replicate n=2): 297.8 µL/min/mg
Modified T-half (min), Average ([3]; mouse liver microsomes, 0.4 mg/ml, 1 µM, average, limited to T Half range 3.00 - […]): 6.0 min
Remarks (mouse microsomal stability study) [3, 12]: Low NCF
mouse liver microsomes T-half ([3]; mouse liver microsomes, NADPH, 1 μM): 6.0 min and 6 min
microsomal CLint at 1 μM (in vitro [4]; pH 7.4): 283 µL/min/mg
remaining at 5 min, 1 μM (in vitro [4]; [13]): 38.7%
remaining at 5 min, 1 μM (in vitro [4]; [14]): 50.5%
microsomal CLint at 1 μM (in vitro [4]; pH 7.4, Calculated CLint, app (µl/min/mg), Average, mouse liver microsomes, 0.4 mg/ml protein, 1 µM): 290 µL/min/mg
microsomal CLint at 1 μM (in vitro [4]; pH 7.4, Calculated CLint, app (µl/min/mg), n=1, mouse liver microsomes, 0.4 mg/ml protein, 1 µM, replicate n=1): 283 µL/min/mg
microsomal CLint at 1 μM (in vitro [4]; pH 7.4, Calculated CLint, app (µl/min/mg), n=2, mouse liver microsomes, 0.4 mg/ml protein, 1 µM, replicate n=2): 298 µL/min/mg
microsomal CLint at 1 μM (in vitro [4]; pH 7.4, mouse liver microsomes CLint, app, mouse liver microsomes, NADPH, 1 μM): 290 µL/min/mg
remaining at 10 min, 1 µM (in vitro [4]; [13]): 17.1%
remaining at 10 min, 1 µM (in vitro [4]; [14]): 17.8%
remaining at 20 min, 1 µM (in vitro [4]; [13]): 9.8%
remaining at 20 min, 1 µM (in vitro [4]; [14]): 9.5%
remaining at 0.5 h, 1 µM (in vitro [4]; [13]): 6.6%
remaining at 0.5 h, 1 µM (in vitro [4]; [14]): 9.5%
remaining at 1 h, 1 µM (in vitro [4]; [13]): 12.9%
remaining at 1 h, 1 µM (in vitro [4]; [14]): 13.3%
remaining at 1 h, 1 µM ([5]; n=1, mouse liver microsomes, n=1): 52.4%
remaining at 1 h, 1 µM ([5]; n=2, mouse liver microsomes, n=2): 51.5%

O=C1NC(=O)C(=Cc2ccc(O)c([N+](=O)[O-])c2)C(=O)N1 [2d, 5-(4-Hydroxy-3-nitrobenzylidene)pyrimidine-2,4,6(1H,3H,5H)-trione]
activity at 0.390625 µM (LbDHODH; [6]): 99 ± 9%
activity at 0.78125 µM (LbDHODH; [6]): 75 ± 6%
activity at 1.5625 µM (LbDHODH; [6]): 60 ± 5%
activity at 3.125 µM (LbDHODH; [6]): 46 ± 5%
activity at 6.25 µM (LbDHODH; [6]): 25 ± 2%
activity at 12.5 µM (LbDHODH; [6]): 13 ± 1%
activity at 25 µM (LbDHODH; [6]): 11 ± 3%
activity at 50 µM (LbDHODH; [6]): 8 ± 1%
activity at 100 µM (LbDHODH; [6]): 6 ± 1%
activity at 200 µM (LbDHODH; [6]): 9 ± 4%
activity at 400 µM (LbDHODH; [6]): 6 ± 2%
activity at 0.390625 µM (LbDHODH; [7]): 75 ± 7%
activity at 0.78125 µM (LbDHODH; [7]): 76 ± 8%
activity at 1.5625 µM (LbDHODH; [7]): 72 ± 11%
activity at 3.125 µM (LbDHODH; [7]): 71 ± 6%
activity at 6.25 µM (LbDHODH; [7]): 57 ± 7%
activity at 12.5 µM (LbDHODH; [7]): 52 ± 6%
activity at 25 µM (LbDHODH; [7]): 49 ± 7%
activity at 50 µM (LbDHODH; [7]): 39 ± 7%
activity at 100 µM (LbDHODH; [7]): 28 ± 3%
activity at 200 µM (LbDHODH; [7]): 21 ± 8%
activity at 400 µM (LbDHODH; [7]): 12 ± 4%
IC50 (LbDHODH; [8]): 3 ± 1 µM
IC50 (LbDHODH; IC50 4 h, 4-h preincubation): 13 ± 2 µM
activity at 100 µM (LbDHODH; [9]): 5 ± 2%
activity at 100 µM (LbDHODH; [10]): 16 ± 3%
activity at 100 µM (HsDHODH; [9]): 90 ± 10%
activity at 100 µM (HsDHODH; [10]): 92 ± 9%
CC50 at 72 h [1]: > 200 µM
Remarks (PAMPA) (in vitro [2]; 10µM, PBS pH 7.4/7.4, 6h at room temperature, LC-MS/MS): Poor detection sensitivity/Compound might be unstable in assay matrix
Remarks (mouse microsomal stability study) [3, 12]: Poor detection sensitivity/Compound might be unstable in assay matrix
